Reference: patent publication US12172992B2, “Pyrimidines for degrading Bruton's tyrosine kinase” (AbbVie Inc., priority 2022, dated 2024)

Tests used:
[1] = biological target: BTK protein in human whole blood (Homo sapiens (Human), UniProt Q06187); test: Btk protein in human whole blood MSD ELISA based assay (BTK degradation); type: cell-based; details: 6 hours, maximum BTK degradation compared to DMSO only treated samples, read-out: hWB BTK dMax (%)
Protocol: Btk protein degradation was tested using an Meso Scale Discovery-ELISA system (MSD-ELISA): (1) Test compounds were added to human whole blood; (2) human whole blood cells treated with test compounds were lysed; (3) lysed cells were treated with capture antibody, an antibody to Btk; (4) lysed cells were treated with […] to Btk; and (5) lysed cells were treated with anti-mouse antibody (tagged).
Specifically, about 80 μl of fresh human whole blood from healthy donors was transferred into each well of a 96-well V-bottom plate (Costar, Cat No. 3894). Using a TECAN™ D300e Digital Dispenser (Tecan)), 1:4 serially diluted compounds [(8 pt assay) in DMSO solution (final 0.2%) starting at 3 μM top concentration], were added in duplicate. Thereafter, plates were placed in a 37° C. incubator and incubated for 6 hours.
At the end of incubation, 80 μl of 2×CST lysis buffer (Cell Signaling Technology, Cat No. 9803), prepared from a 10× stock solution, was added per well to lyse the blood. Plates were then sealed with a plate sealer and the samples were frozen overnight at −80° C.
Total amount of BTK protein remaining in the blood samples after compound treatment was measured using MSD-ELISA. After thawing the frozen plates, blood lysates were mixed thoroughly and transferred to small spot high-bind MSD plates (Meso Scale Discovery, Cat No. L45XB-3) and coated with capturing antibody, rabbit anti-human BTK (D3H5) (Cell Signaling Technology, Cat No. 8547CF). Thereafter, primary detection antibody, mouse anti-human BTK monoclonal antibody, (BD Biosciences, Cat No. 611117) and secondary detection antibody, anti-mouse SULFO-TAG (Meso Scale Discovery, Cat No. R32AC-1) were added. The assay plates were read on an MSD S600 plate reader by the addition of 2×MSD read buffer (Meso Scale Discovery, R92TC-1). All reagent transfers, including blood lysis, was conducted using a Biomed i7 liquid handler. From the dose response curves, DC50 values were calculated by averaging data from duplicate experiments. and Curve fitting was done by non-linear regression using GraphPad Prism. The DC50 values are reported in Table 2 in the hWB BTK DC50 (nM) column The Dmax values represent the maximum amount of BTK degradation observed upon compound treatment compared to DMSO only treated samples. The dMax (%) values are reported in Table 2 in the hWB BTK dMax (%) column.

[2] = biological target: BTK in mouse bone marrow (Mus musculus (Mouse), UniProt P35991); test: Mouse Bone Marrow Assay (MSD ELISA of BTK degradation in bone marrow); type: in vivo; details: female C57BL/6J mice, single dose of Dose A, bone marrow collected after 24 hours
Protocol: Female C57BL/6J mice (Jackson Laboratories) were used for this study. Compounds or vehicle/control were prepped with EtOH; PEG-400; Phosal 53 MCT (10:30:60, v/v). Four mice were tested per compound or vehicle/control. On Day 1, mice were administered a single dose of Dose A. On Day 2 (after 24 hours), tissue (bone marrow) was collected from one hind leg per mouse.
An MSD (Meso Scale Discovery) ELISA (enzyme-linked immunosorbent assay) based assay was used to determine BTK degradation in mouse bone marrow. The following materials and equipment were used: 10% NP40 solution (nonionic polyoxyethylene surfactant, ThermoFisher, cat no. 28324); protease inhibitor mini tablet (Roche, cat no. 05 892 970 001); PhosphoSTOP™ tablet (Roche, cat no. 04 906 837 001); Pierce™ BCA Protein Assay Kit (Thermofisher, Cat No. 23225); Precellys® 2 mL lysing tube with 2.8 mm beads (VWR, cat no. 10032-756); Bertin Precellys® 24/Cryolys® cooling system; 96-well MSD streptavidin pre-coated plates (MSD, cat no. L15SA-1); MSD Blocker A (MSD, cat no. R93BA-4); capture antibody, biotinylated BTK mAb (BD Biosciences, cat no. 624008; custom order); primary detection antibody, BTK RpAb (rabbit polyclonal antibody, CST, cat no. 8547S, D3H5 clone); secondary detection antibody, anti-Rabbit-Sulfo-Tag (MSD, cat no. R32AB-1); read Buffer, 4× (MSD, cat no. R92TC-1); recombinant BTK protein (Thermofisher, cat no. PR5442A); MSD Tris Wash Buffer (10×) (MSD, cat no. R61TX-1); PBS (phosphate-buffered saline); deionized water (diH2O); Lysis Buffer [0.2% NP40 in PBS+Protease Inhibitor tablet (1 tablet/10 mL)+PhosphoSTOP tablet (1 tablet/10 mL)]; 3% MSD Blocker A [MSD Blocker A+450 mL diH2O+50 mL]; and 10×MSD Tris Wash Buffer.
Lysis buffer [(PBS+0.2% NP40+PI (protease inhibitor)+PhosphoSTOP)] was prepared and put on ice until it was fully cold. Ice cold lysis buffer […] was added to each Precellys® tube containing beads and bone marrow sample. Sample tubes were transferred into Precellys® machine and homogenized using 5000 rpm—2×20 seconds. The sample lysates were centrifuged at 14,000 rpm for 20 minutes at 4° C. after homogenizing.
The protein concentration was determined using Pierce™ BCA Protein Assay Kit following manufacturer's recommended protocol. The protein normalized working solution was prepared, using 30 μg protein per sample lysate for assay.
A 300 ng/ml working stock solution of recombinant BTK protein in lysis buffer was prepared, and the sample was serially diluted at 3-fold dilution (10-point assay, highest concentration was 300 ng/mL and lowest concentration was 0.015 ng/mL)
MSD plate coating: Coating antibody (biotinylated-BTK mAb) stock solution was prepared at 1 μg/mL in PBS buffer. 50 μL/well capture antibody (Biotinylated BTK mAb) solution was added, and the plates were shaken gently at ambient temperature for two hours. The plates were washed 3 times with 1×MSD Tris Wash Buffer in a plate washer (300 μL/well), and the plates were blocked with 3% MSD Blocker A (150 μL/well). The plates were incubated for an additional 1-2 hours at ambient temperature with gentle shaking. The plates were washed 3 times with 1×MSD wash buffer using plate washer. Bone marrow lysates (30 μg) at a final volume of 50 μL/well were added into the plates. The serially diluted standard samples were added to the same plates at a final volume of 50 μL/well. The plates were incubated overnight at 4° C. with gentle shaking.
The plates were washed three times with 1×MSD wash buffer (prepared from 10× concentration buffer) using plate washer. Primary detection antibody at 50 μL/well was added (BTK RpAb; 1:1000 dilution in 1% MSD Blocker A). The plates were incubated for two hours at ambient temperature with gentle shaking. The plates were washed three times with 1×MSD wash buffer using plate washer. Anti-Rabbit-SULFO-TAG secondary antibodies (50 μl/well) were added, 1:500 diluted in 1% MSD Blocker A, and the plates were incubated for one to two hours at ambient temperature. […]

Chain of BTK in mouse bone marrow (P35991 whole entry): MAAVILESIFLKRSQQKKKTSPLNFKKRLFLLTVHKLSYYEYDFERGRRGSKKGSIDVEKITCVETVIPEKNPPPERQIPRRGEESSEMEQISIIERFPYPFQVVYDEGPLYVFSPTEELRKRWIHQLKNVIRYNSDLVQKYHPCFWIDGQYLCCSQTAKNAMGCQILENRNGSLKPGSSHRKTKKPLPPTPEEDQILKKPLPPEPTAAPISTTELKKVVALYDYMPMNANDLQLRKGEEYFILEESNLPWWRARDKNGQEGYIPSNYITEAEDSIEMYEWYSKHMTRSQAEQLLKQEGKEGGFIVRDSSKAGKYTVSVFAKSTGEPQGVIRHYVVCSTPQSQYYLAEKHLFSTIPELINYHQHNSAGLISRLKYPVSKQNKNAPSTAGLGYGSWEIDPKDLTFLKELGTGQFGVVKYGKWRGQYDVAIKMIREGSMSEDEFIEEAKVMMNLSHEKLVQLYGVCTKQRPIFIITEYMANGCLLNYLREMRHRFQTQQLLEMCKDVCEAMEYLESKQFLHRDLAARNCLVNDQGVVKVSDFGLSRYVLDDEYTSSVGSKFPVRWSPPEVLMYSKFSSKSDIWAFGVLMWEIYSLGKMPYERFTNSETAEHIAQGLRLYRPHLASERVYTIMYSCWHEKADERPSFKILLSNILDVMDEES
Chain of BTK protein in human whole blood (Q06187 whole entry): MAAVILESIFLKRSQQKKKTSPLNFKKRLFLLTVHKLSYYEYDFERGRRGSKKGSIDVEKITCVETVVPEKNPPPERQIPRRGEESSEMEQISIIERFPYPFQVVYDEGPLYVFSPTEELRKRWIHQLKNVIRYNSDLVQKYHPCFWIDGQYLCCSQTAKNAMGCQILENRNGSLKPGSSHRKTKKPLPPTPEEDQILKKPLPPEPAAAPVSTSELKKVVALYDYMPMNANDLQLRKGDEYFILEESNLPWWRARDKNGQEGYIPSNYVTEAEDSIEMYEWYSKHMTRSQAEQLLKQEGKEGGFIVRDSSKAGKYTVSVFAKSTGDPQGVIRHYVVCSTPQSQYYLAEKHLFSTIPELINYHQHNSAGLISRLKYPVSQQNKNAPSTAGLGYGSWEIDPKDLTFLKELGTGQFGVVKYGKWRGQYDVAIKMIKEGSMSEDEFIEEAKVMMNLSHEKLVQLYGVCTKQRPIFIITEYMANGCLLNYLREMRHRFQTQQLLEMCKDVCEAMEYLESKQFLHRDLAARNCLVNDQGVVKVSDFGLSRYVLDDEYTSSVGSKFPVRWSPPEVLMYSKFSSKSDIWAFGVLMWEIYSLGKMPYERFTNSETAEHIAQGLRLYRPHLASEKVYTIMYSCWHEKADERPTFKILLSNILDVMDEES

Row | Dmax [1] [%] | Mouse Bone Marrow (%) (% remaining BTK, vehicle versus treated) [2] | Structure (SMILES)
1 | 99.2 | 22 | Cc1cc(-c2cc(Nc3ccc(N4CCN(CCc5ccc(N6CCC(=O)NC6=O)cc5)CC4)cn3)ncn2)ccc1[C@@H](C)NC(=O)c1nc(C(C)(C)C)no1 [Example 3, 3-tert-butyl-N-{(1R)-1-[4-(6-{[5-(4-{2-[4-(2,4-dioxo-1,3-diazinan-1-yl)phenyl]ethyl}piperazin-1-yl)pyridin-2-yl]amino}pyrimidin-4-yl)-2-methylphenyl]ethyl}-1,2,4-oxadiazole-5-carboxamide]
2 | 99.8 | 19 | CC[C@H]1CN(CCc2ccc(N3CCC(=O)NC3=O)cc2)CCN1c1ccc(Nc2cc(-c3ccc([C@@H](C)NC(=O)c4nc(C(C)(C)C)no4)c(C)c3)ncn2)nc1 [Example 6, 3-tert-butyl-N-[(1R)-1-{4-[6-({5-[(2S)-4-{2-[4-(2,4-dioxo-1,3-diazinan-1-yl)phenyl]ethyl}-2-ethylpiperazin-1-yl]pyridin-2-yl}amino)pyrimidin-4-yl]-2-methylphenyl}ethyl]-1,2,4-oxadiazole-5-carboxamide]
3 | 99.8 | 13 | Cc1cc(-c2cc(Nc3ccc(N4CCN(CCc5ccc(N6CCC(=O)NC6=O)c(F)c5)C[C@@H]4C)cn3)ncn2)ccc1[C@@H](C)NC(=O)c1nc(C(C)(C)C)no1 [Example 4, 3-tert-butyl-N-[(1R)-1-{4-[6-({5-[(2S)-4-{2-[4-(2,4-dioxo-1,3-diazinan-1-yl)-3-fluorophenyl]ethyl}-2-methylpiperazin-1-yl]pyridin-2-yl}amino)pyrimidin-4-yl]-2-methylphenyl}ethyl]-1,2,4-oxadiazole-5-carboxamide]
4 | 99.7 | 16 | C[C@@H](NC(=O)c1nc(C(C)(C)C)no1)c1ccc(-c2cc(Nc3ccc(N4CCN(CCc5ccc(N6CCC(=O)NC6=O)cc5)C[C@@H]4C)cn3)ncn2)cc1Cl [Example 14, 3-tert-butyl-N-[(1R)-1-{2-chloro-4-[6-({5-[(2S)-4-{2-[4-(2,4-dioxo-1,3-diazinan-1-yl)phenyl]ethyl}-2-methylpiperazin-1-yl]pyridin-2-yl}amino)pyrimidin-4-yl]phenyl}ethyl]-1,2,4-oxadiazole-5-carboxamide]
